Assay [1] can be described thus: Inhibition of miR-96 hairpin RNA precursor (unknown origin).
Assay [2] is described as follows: Binding affinity to HCV promoter RNA by NMR-based fragment screening assay. The arrangement: species or system Hepacivirus hominis.
Assay [3] relates to Human immunodeficiency virus 1. Nature of the assay: Antiviral activity against HIV1 NL4-3 infected human TZM-bl cells assessed as reduction in viral replication. In kind it is functional, organism-based. Conditions: Human immunodeficiency virus 1, NL4-3, TZM-bl.
Assay [4] can be described thus: Binding affinity to HIV1 TAR RNA. Also noted: species or system Human immunodeficiency virus 1.
Assay [5] concerns Human immunodeficiency virus 1. Nature of the assay: Binding affinity to HIV1 TAR RNA in HIV1 NL4-3 infected human TZM-bl cells assessed as inhibition of Tat-mediated activation relative to control. Conditions: concentration not given here.
Assay [6] has as its system Human immunodeficiency virus 1. Description: Antiviral activity against HIV1 assessed as reduction in viral replication by cell based assay. In kind it is functional, organism-based.
In assay [7] the test system is Human immunodeficiency virus 1. Nature of the assay: Binding affinity to HIV1 TAR RNA assessed as increase in melting temperature.
In assay [8] the test system is Human immunodeficiency virus 1. Nature of the assay: Antiviral activity against HIV1 infected in human MT2 cells assessed as inhibition of virus proliferation at 9 uM relative to control. In kind it is functional. The conditions noted are these: Human immunodeficiency virus 1, MT2.
Assay [9] has as its target Rev responsive element (RRE) RNA. Nature of the assay: Binding affinity to HIV1 RRE RNA assessed as reduction in binding of tritiated RRE RNA to biotinylated Rev protein by high-throughput scintillation proximity assay. In kind it is nucleic-acid assay, Human immunodeficiency virus 1. Background: SPA uses beads or plates that emit light when radiolabelled molecules are held near them.

The nature of assay [10]: Binding affinity to Stem loop 3 RNA in HIV1 infected in HEK293T cells assessed as reduction in SL3-Gag interaction by measuring inhibition of RNA incorporation into virions. In kind it is cell-based. The conditions noted are these: Human immunodeficiency virus 1, HEK-293T.
The nature of assay [11]: Binding affinity to r(CUG) repeat RNA (unknown origin).
Assay [12] has as its system Human immunodeficiency virus 1. Nature of the assay: Antiviral activity against HIV1 infected in human CEM-SS cells assessed as inhibition of virus proliferation. In kind it is functional, organism-based. Conditions: Human immunodeficiency virus 1, CEM-SS.
Assay [13] concerns Human immunodeficiency virus 1. Description: Antiviral activity against HIV1 NL4-3 infected in human MAGIC-5B cells assessed as inhibition of virus proliferation. In kind it is functional, organism-based. Conditions: Human immunodeficiency virus 1, NL4-3.
Assay [14] is described as follows: Binding affinity to r(CUG) repeat RNA (unknown origin) assessed as reduction in r(CUG)-MBNL1 interaction.
A short description of assay [15]: Binding affinity to r(CGG)12 repeat RNA (unknown origin) assessed as reduction in r(CGG)12-[…] interaction.

Here are results for twelve compounds from ChEMBL document CHEMBL4354788, “Synthetic small-molecule RNA ligands: future prospects as therapeutic agents” (Medchemcomm, 2019).

A value given as a limit tells only on which side of the number the result lay.

As usually defined, the IC50 is the concentration that inhibits the measured activity by half. Compound `CCCN(CC(=O)N(CCC)CC(=O)N(CC(N)=O)Cc1cn(CCCNC(=O)CCCOc2c(C(C)(C)C)cc(-c3nc4cc(N5CCN(C)CC5)ccc4[nH]3)cc2C(C)(C)C)nn1)C(=O)CCCOc1cccc(-c2nc3ccc(-c4nc5ccc(N6CCN(C)CC6)cc5[nH]4)cc3[nH]2)c1` registered an IC50 in assay [1] of 0.05 µM. A word on the Kd: it is the equilibrium constant for the complex coming apart. Low values mean higher affinity, high ones lower affinity. With `COc1cc2nc(N3CCNCC3)nc(N)c2cc1OC` [AMINODIMETHOXYQUINAZOLINYLPIPERAZINE], binding in [2] was put at a Kd of 50.5 µM. In general, inhibition refers to how much of the control response was suppressed. For `CCN[C@@H]1C[C@H](N)[C@@H](O[C@H]2OC(CN)=CC[C@H]2N)[C@H](O)[C@H]1O[C@H]1OC[C@](C)(O)[C@H](NC)[C@H]1O` [NETILMICIN], the IC50 in assay [3] was 23.1 µM. Besides, in [4], the Kd was found to be 1.35 µM. For the same compound, the inhibition in assay [5] turned out to be 81%. A word on the EC50: it is the concentration needed to bring the measured effect to its halfway point. For `CN(C)CCOc1cc2c(c3ccccc13)-c1ccccc1C2=O`, the EC50 in [6] (read-out: EC50) stood at 0.83 µM. What is called ΔTm is the shift of the melting midpoint relative to a reference. As for `NC[C@H]1O[C@@H](O[C@H]2[C@H](O[C@@H]3O[C@H](Cn4cc(-c5ccc(-c6cn(C[C@H]7O[C@@H](O[C@@H]8[C@@H](O)[C@H](N)C[C@H](N)[C@H]8O[C@@H]8O[C@H](CN)[C@@H](O)[C@H](O)[C@H]8N)[C@H](O)[C@@H]7O[C@@H]7O[C@H](CN)[C@@H](O)[C@H](O)[C@H]7N)nn6)cc5)nn4)[C@@H](O[C@@H]4O[C@H](CN)[C@@H](O)[C@H](O)[C@H]4N)[C@H]3O)[C@@H](O)[C@H](N)C[C@@H]2N)[C@H](N)[C@@H](O)[C@@H]1O`, the ΔTm in assay [7] is under 10 °C. Further, the inhibition at 9 µM in assay [8] came out at 70%. Turning to `CCN(CC)CCOc1ccc(/C(=C(/Cl)c2ccccc2)c2ccccc2)cc1` [ENCLOMIPHENE], in assay [6], the EC50 was 4.3 µM. In addition, in assay [9], the IC50 came out at 3.7 µM. On to `CN1CC/C(=N\c2ccc(C(=O)Nc3ccc(N=c4ccn(C)cc4)cc3)cc2)c2cc([N+](=O)[O-])ccc21`, for which the IC50 in [10] was determined as 4.5 µM. In assay [11], `Nc1cccc(-c2nc3cc(-c4ccc5[nH]c(-c6cccc(N)c6)nc5c4)ccc3[nH]2)c1` had a Kd of 0.07 µM. Regarding `Cc1ccc2c(N)c(C(=O)Nc3cccc(C(F)(F)F)c3)sc2n1`, in assay [12], the EC50 came out at 28 µM. Also, the Kd in assay [4] was 2.4 µM.

On to `CC(=O)Nc1nc(-c2cccc(NC(=O)[C@H](N)Cc3c[nH]cn3)c2)cs1`, for which the IC50 in [13] was determined as 0.41 µM. The compound also had a Kd in assay [4] of 17.5 µM. `COc1ccc2nc3cc(Cl)ccc3c(NCCCCNc3nc(N)nc(N)n3)c2c1`: in assay [14], the IC50 came to 15 µM. For the same compound, binding in assay [11] was put at a Kd of 0.0052 µM. Turning to `Cc1c2cc[n+](CCN3CCCCC3)cc2c(C)c2c1[nH]c1ccc(O)cc12`, the IC50 in [15] turned out to be 12 µM.
